Laboratory results from patent publication US20130116241A1, “NOVEL INHIBITOR COMPOUNDS OF PHOSPHODIESTERASE TYPE 10A” (AbbVie Inc., priority 2011, published 2013).
Where a name gives a salt, the structure may show the parent alone. Read-outs that look alike come from different tables or passages of the source.

Molecular target: human PDE10A (UniProt Q9Y233)
Assay: Measurement of PDE activity (recombinant enzyme, HTRF cAMP kit)
Assay type: biochemical
Conditions: Table 1, substrate 20 nM for PDE10, 60 minutes at 29 C
In short: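 Recombinant human PDE10A (10–250 pM range across PDEs) with 20 nM cAMP substrate in 20 mM Tris-HCl pH 7.5, 10 mM MgCl2, 0.1% BSA, compound pre-mixed with enzyme. Ran 60 min at 29 °C. Remaining cAMP read by HTRF, converted to % of uninhibited activity, and IC50 fitted.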

Chain of human PDE10A (Q9Y233 290-1055 limits assumed): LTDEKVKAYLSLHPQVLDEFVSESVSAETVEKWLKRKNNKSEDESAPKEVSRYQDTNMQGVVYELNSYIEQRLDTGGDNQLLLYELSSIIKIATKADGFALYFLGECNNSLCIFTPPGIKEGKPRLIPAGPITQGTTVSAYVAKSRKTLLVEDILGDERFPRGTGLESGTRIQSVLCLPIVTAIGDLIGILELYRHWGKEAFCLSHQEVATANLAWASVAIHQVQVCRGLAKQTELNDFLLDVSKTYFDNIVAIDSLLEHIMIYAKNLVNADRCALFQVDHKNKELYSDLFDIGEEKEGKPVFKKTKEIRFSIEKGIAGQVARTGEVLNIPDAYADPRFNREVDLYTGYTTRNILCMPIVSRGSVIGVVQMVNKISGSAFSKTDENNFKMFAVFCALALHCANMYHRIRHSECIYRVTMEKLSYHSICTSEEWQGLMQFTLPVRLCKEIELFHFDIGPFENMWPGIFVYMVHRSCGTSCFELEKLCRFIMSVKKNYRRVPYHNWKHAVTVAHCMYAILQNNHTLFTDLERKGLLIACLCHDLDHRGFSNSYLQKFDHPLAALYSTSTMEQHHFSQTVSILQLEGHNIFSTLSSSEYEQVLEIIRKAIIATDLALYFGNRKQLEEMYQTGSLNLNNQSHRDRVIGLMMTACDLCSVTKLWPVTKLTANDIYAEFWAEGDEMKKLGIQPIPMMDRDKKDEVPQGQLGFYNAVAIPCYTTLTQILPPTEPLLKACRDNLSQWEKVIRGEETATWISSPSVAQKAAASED

Row | SMILES | IC50 (read-out: IC50) | IC50
1 | COc1ccc(-c2cccc3cnn(CCc4ccc5ccccc5n4)c(=O)c23)cn1 [Example 133, 8-(6-Methoxypyridin-3-yl)-2-[2-(quinolin-2-yl)ethyl]phthalazin-1(2H)-one] | < 100 nM | 
2 | N#CCc1ccc(-c2cccc3cnn(CCc4ccc5ccccc5n4)c(=O)c23)cc1 [Example 106, (4-{4-Oxo-3-[2-(quinolin-2-yl)ethyl]-3,4-dihydrophthalazin-5-yl}phenyl)acetonitrile] | < 100 nM | 
3 | O=c1c2c(-c3cncnc3)cccc2ccn1[C@@H]1C[C@H]1c1ccc2cc(F)ccc2n1 (relative stereo) [Example 273, anti 2-(2-(6-fluoroquinolin-2-yl)cyclopropyl)-8-(pyrimidin-5-yl)isoquinolin-1(2H)-one] | < 100 nM | 
4 | O=c1c2c(N[C@@H]3CCOC3)cccc2cnn1CCc1cn2ccccc2n1 [compound 377, 2-[2-(imidazo[1,2-a]pyridin-2-yl)ethyl]-8-[(3R)-tetrahydrofuran-3-ylamino]phthalazin-1(2H)-one] | < 100 nM | 
5 | O=c1c2c(-c3ccc(F)cc3F)csc2cnn1CCc1ccc2ccccc2n1 [Example 67, 3-(2,4-difluorophenyl)-5-[2-(quinolin-2-yl)ethyl]thieno[2,3-d]pyridazin-4(5H)-one] | 100 to 200 nM | 
6 | O=c1c2c(-c3cccnc3)csc2cnn1CCc1ccc2ccccc2n1 [Example 39, 3-(pyridin-3-yl)-5-[2-(quinolin-2-yl)ethyl]thieno[2,3-d]pyridazin-4(5H)-one] | < 100 nM | 
7 | O=c1c2c(-c3ccc4[nH]ccc4c3)cccc2cnn1CCc1ccc2ccccc2n1 [Example 122, 8-(1H-Indol-5-yl)-2-[2-(quinolin-2-yl)ethyl]phthalazin-1(2H)-one] | 200 to 500 nM | 
8 | O=c1c2cccc(N3CCOCC3)c2cnn1CCc1ccc2ccccc2n1 [compound 397, hydrochloride] | < 100 nM | 
9 | O=c1c2c(-c3ccc4c(c3)OCO4)csc2cnn1CCc1ccc2ccccc2n1 [Example 54, 3-(1,3-benzodioxol-5-yl)-5-[2-(quinolin-2-yl)ethyl]thieno[2,3-d]pyridazin-4(5H)-one] | 100 to 200 nM | 
10 | O=c1c2c(-c3ccnc(F)c3)csc2ccn1[C@@H]1C[C@H]1c1ccc2ccccc2n1 (relative stereo) [compound 286] | < 100 nM | 
11 | Cc1cc(-c2cccc3cnn(CCc4ccc5ccccc5n4)c(=O)c23)ccn1 [Example 135, 8-(2-Methylpyridin-4-yl)-2-[2-(quinolin-2-yl)ethyl]phthalazin-1(2H)-one] | < 100 nM | 
12 | Cc1csc2c(-c3ccncc3)cn(CCc3ccc4ccccc4n3)c(=O)c12 [Example 216, 3-Methyl-7-(pyridin-4-yl)-5-(2-(quinolin-2-yl)ethyl)thieno[3,2-c]pyridin-4(5H)-one] | < 100 nM | 
13 | O=c1c2c(-c3ccncc3)csc2ccn1CCc1ccc2ccccc2n1 [Example 205, 3-(Pyridin-4-yl)-5-[2-(quinolin-2-yl)ethyl]thieno[3,2-c]pyridin-4(5H)-one hydrochloride] | < 100 nM | 
14 | O=c1c2c(-c3ccncc3)csc2ccn1C1CC1c1ccc2sccc2n1 (centres unmarked) [compound 292] | < 100 nM | 
15 | O=c1c2cccc(-c3cncnc3)c2ccn1C1CC1c1ccc2ccccc2n1 (centres unmarked) [compound 296] | 100 to 200 nM | 
16 | O=c1c2c(-c3ccncc3)csc2ccn1/C=C/c1ccc2cc(Cl)ccc2n1 [compound 412, 5-[(E)-2-(6-chloroquinolin-2-yl)ethenyl]-3-(pyridin-4-yl)thieno[3,2-c]pyridin-4(5H)-one] | < 100 nM | 
17 | COc1ccc(-c2cccc3ccn(C4CC4c4ccc5ccccc5n4)c(=O)c23)cc1 (single isomer, unassigned) [Example 270, anti (−) 8-(4-methoxyphenyl)-2-(2-(quinolin-2-yl)cyclopropyl)isoquinolin-1(2H)-one] | < 100 nM | 
18 | O=c1c2c(C3=CCNCC3)cccc2cnn1CCc1cn2ccccc2n1 [compound 375, hydrochloride] |  | < 100 nM
19 | Cc1ncc(-c2csc3ccn(C4CC4c4ccc5ccccc5n4)c(=O)c23)cn1 (centres unmarked) [compound 284] | < 100 nM | 
20 | O=c1c2c(-c3cccnc3)cccc2ccn1C1CC1c1ccc2cc(F)ccc2n1 (centres unmarked) [Example 272] | < 100 nM | 
21 | O=c1c2c(N3CCCCC3)cccc2cnn1CCc1cn2ccccc2n1 [Example 181, 2-[2-(Imidazo[1,2-a]pyridin-2-yl)ethyl]-8-(piperidin-1-yl)phthalazin-1(2H)-one hydrochloride] | 200 to 500 nM | 
22 | CN(C)C(=O)c1cccc(-c2cccc3cnn(CCc4ccc5ccccc5n4)c(=O)c23)c1 [Example 117, N,N-Dimethyl-3-{4-oxo-3-[2-(quinolin-2-yl)ethyl]-3,4-dihydrophthalazin-5-yl}benzamide] | 100 to 200 nM | 

The next lines start with results.

Row | IC50 (read-out: IC50) | SMILES | IC50
23 | < 100 nM | O=c1c2c(-c3ccncc3)cccc2ccn1C1CC1c1ccc2ccccc2n1 (racemic) [Example 222, anti (rac) 8-(Pyridin-4-yl)-2-(2-(quinolin-2-yl)cyclopropyl)isoquinolin-1(2H)-one] | 
24 | < 100 nM | O=c1c2c(-c3ccncc3)cccc2cnn1[C@@H]1C[C@H]1c1ccc2cc(F)ccc2n1 (relative stereo) [compound 278] | 
25 | < 100 nM | O=c1c2c(-c3cncnc3)cccc2ccn1C1CC1c1ccc2ccccc2n1 (single isomer, unassigned) [Example 240a, anti (+) 8-(pyrimidin-5-yl)-2-(2-(quinolin-2-yl)cyclopropyl)isoquinolin-1(2H)-one] | 
26 | < 100 nM | O=c1c2cccc(N3CC4COCC4C3)c2cnn1CCc1cn2ccccc2n1 (centres unmarked) [Example 199, 2-[2-(Imidazo[1,2-a]pyridin-2-yl)ethyl]-5-(tetrahydro-1H-furo[3,4-c]pyrrol-5(3H)-yl)phthalazin-1(2H)-one hydrochloride] | 
27 | < 100 nM | O=c1c2c(-c3cncnc3)csc2ccn1CCc1ccc2ccccc2n1 [Example 206] | 
28 | 200 to 500 nM | Cc1ccccc1-c1csc2cnn(CCc3ccc4ccccc4n3)c(=O)c12 [Example 18, 3-(2-methylphenyl)-5-[2-(quinolin-2-yl)ethyl]thieno[2,3-d]pyridazin-4(5H)-one] | 
29 | < 100 nM | O=c1c2c(N3CCC[C@H](O)C3)cccc2cnn1CCc1cn2ccccc2n1 [compound 333] | 
30 | < 100 nM | O=c1c2c(-c3ccncc3)cccc2ccn1C1CC1c1ccc2cc(F)ccc2n1 (centres unmarked) [Example 274] | 
31 | 100 to 200 nM | O=c1c2c(-c3ccc(F)c(F)c3)csc2cnn1CCc1ccc2ccccc2n1 [Example 72, 3-(3,4-difluorophenyl)-5-[2-(quinolin-2-yl)ethyl]thieno[2,3-d]pyridazin-4(5H)-one] | 
32 | < 100 nM | O=c1c2c(N3C[C@H]4CC[C@@H](C3)O4)cccc2ccn1C1CC1c1ccc2ccccc2n1 (stereo partly drawn) [Example 266, 8-((1R,5S)-8-oxa-3-azabicyclo[3.2.1]octan-3-yl)-2-(2-(quinolin-2-yl)cyclopropyl)isoquinolin-1(2H)-one] | 
33 | < 100 nM | O=c1c2c(-c3cncnc3)cccc2cnn1CCc1ccc2ccccc2n1 [Example 124, 8-(Pyrimidin-5-yl)-2-[2-(quinolin-2-yl)ethyl]phthalazin-1(2H)-one] | 
34 | 100 to 200 nM | O=c1c2c(-c3ccnnc3)cccc2cnn1CCc1cn2ccccc2n1 [compound 344, 2-[2-(imidazo[1,2-a]pyridin-2-yl)ethyl]-8-(pyridazin-4-yl)phthalazin-1(2H)-one] | 
35 | 200 to 500 nM | CC(C)(C)OC(=O)N1CC=C(c2cccc3cnn(CCc4cn5ccccc5n4)c(=O)c23)CC1 [Example 191, tert-Butyl 4-{3-[2-(imidazo[1,2-a]pyridin-2-yl)ethyl]-4-oxo-3,4-dihydrophthalazin-5-yl}-3,6-dihydropyridine-1(2H)-carboxylate] | 
36 | < 100 nM | O=c1c2c(-c3ccc(O)cc3)csc2cnn1CCc1ccc2ccccc2n1 [Example 16, 3-(4-hydroxyphenyl)-5-[2-(quinolin-2-yl)ethyl]thieno[2,3-d]pyridazin-4(5H)-one] | 
37 | < 100 nM | O=c1c2c(-c3ccncc3)cccc2cnn1CCc1ccc2ccccc2n1 [Example 98, 8-(Pyridin-4-yl)-2-[2-(quinolin-2-yl)ethyl]phthalazin-1(2H)-one] | 
38 | 200 to 500 nM | COc1ncccc1-c1csc2cnn(CCc3ccc4ccccc4n3)c(=O)c12 [Example 38, 3-(2-methoxypyridin-3-yl)-5-[2-(quinolin-2-yl)ethyl]thieno[2,3-d]pyridazin-4(5H)-one] | 
39 | < 100 nM | O=c1c2c(N3CCOCC3)csc2ccn1C1CC1c1ccc2ccccc2n1 (centres unmarked) [compound 287] | 
40 | 100 to 200 nM | O=c1c2c(N3CCCOCC3)cccc2cnn1CCc1cn2ccccc2n1 [Example 190, 2-[2-(Imidazo[1,2-a]pyridin-2-yl)ethyl]-8-(1,4-oxazepan-4-yl)phthalazin-1(2H)-one hydrochloride] | 
41 | < 100 nM | NCC1CC(Cl)CN1c1cccc2cnn(CCc3cn4ccccc4n3)c(=O)c12 (centres unmarked) [compound 366, trifluoroacetate] | 
42 | < 100 nM | O=c1c2c(-c3cncnc3)csc2cnn1CCc1ccc2ccccc2n1 [Example 37, 3-(pyrimidin-5-yl)-5-[2-(quinolin-2-yl)ethyl]thieno[2,3-d]pyridazin-4(5H)-one] | 
43 | 100 to 200 nM | COc1ccc(-c2csc3cnn(CCc4ccc5ccccc5n4)c(=O)c23)cn1 [Example 49, 3-(6-methoxypyridin-3-yl)-5-[2-(quinolin-2-yl)ethyl]thieno[2,3-d]pyridazin-4(5H)-one] | 
44 | < 100 nM | O=c1c2c(-c3ccncc3)csc2ccn1C1CC1c1ccc2ccccc2n1 (centres unmarked) [compound 293] | 
45 | < 100 nM | O=c1c2c(N3CCOCC3)cccc2cnn1CCc1ccc2ccccc2n1 [compound 329, hydrochloride] | 
46 | < 100 nM | O=c1c2c(-c3ccncc3)csc2ccn1C1CC1c1ccc2ccccc2n1 (single isomer, unassigned) [293a] | 
47 | < 100 nM | O=c1c2cccc(-c3ccncc3)c2cnn1CCc1ccc2ccccc2n1 [Example 192, 5-(Pyridin-4-yl)-2-[2-(quinolin-2-yl)ethyl]phthalazin-1(2H)-one hydrochloride] | 
